Source: patent US5202319A, “Substituted 3-amino-2,3,4,5-tetrahydro-1-aryloxy-3-benzazepines” (Hoechst-Roussel Pharmaceuticals Inc., priority 1991, dated 1993)
Structures can show the parent of a compound that is named as a salt.

How the values were obtained:
[^3 H]-5HT transport = CNS tissue; cited from earlier work
serotonin (5HT) uptake = assay: 3H-Serotonin Uptake in Rat Whole Brain and Hypothalamic Synaptosomes; assay type: biochemical; conditions: 50 nM 3H-5HT, 37° C., 5 minutes, log-probit analysis, read-out: Inhibition of ^3 H-serotonin Uptake IC50
Experimental: A. Animals: Male CR Wistar rats (100-125 g).
3. […] This is used to dilute the specific activity of radiolabeled 5HT.
The final desired concentration of ^3 H-5HT in the assay is 50 nM. The dilution factor is 0.8.
Male Wistar rats are decapitated and the brain rapidly removed. […] Homogenization should be done with 4-5 up and down strokes at medium speeds to minimize synaptosome lysis. […] The supernatant (S1) is decanted and is used for uptake experiments.
Tubes are incubated at 37° C. under a 95% O2 /5% CO2 atmosphere for 5 minutes. For each assay, 3 tubes are incubated with 20 μl of vehicle at 0° C. in an ice bath. After incubation all tubes are immediately centrifuged at 4000 g for 10 minutes. The supernatant fluid is aspirated and the pellets dissolved by adding 1 ml of solubilizer (Triton X-100+50% EtOH, 1:4 v/v). […] Active uptake is the difference between cpm at 37° C. and 0° C. […] IC50 values are derived from log-probit analysis.

5HT uptake = conditions: cited from earlier work
[1] = in vivo; cited from earlier work
5HT uptake sites = conditions: in vitro; cited from earlier work

## C[C@@H]1O[C@@H](O[C@H]2C[C@@H](O)[C@]3(CO)[C@H]4[C@H](O)C[C@]5(C)[C@@H](C6=CC(=O)OC6)CC[C@]5(O)[C@@H]4CC[C@]3(O)C2)[C@H](O)[C@H](O)[C@H]1O [ouabain]
[^3 H]-5HT transport
  inhibition of [^3 H]-5HT transport: inhibited

## COc1cc2c(cc1OC)C(Oc1ccccc1)CN(N)CC2 (stereo not drawn) [3-Amino-7,8-dimethoxy-1-phenoxy-2,3,4,5-tetrahydro-3-benzazepine maleate]
Serotonin (5HT) uptake
  IC50: 2.13 µM

## CN(C)C/C=C(/c1ccc(Br)cc1)c1cccnc1 [zimelidine]
5HT uptake
  effects on 5HT uptake: fairly selective effects on 5HT uptake

## NN1CCc2ccccc2C(Oc2ccc(C(F)(F)F)cc2)C1 (stereo not drawn) [3-Amino-2,3,4,5-tetrahydro-1-(4-trifluoromethylphenoxy)-3-benzazepine maleate]
Serotonin (5HT) uptake
  IC50: 9.36 µM

## O=c1n(CCCN2CCN(c3cccc(Cl)c3)CC2)nc2ccccn12 [Trazodone]
[1]
  clinical effectiveness: clinically effective antidepressants

## CN(C)CCCN1c2ccccc2CCc2ccccc21 [[^3 H]-imipramine]
5HT uptake sites
  [^3 H]-imipramine binding: labels 5HT uptake sites
